Data: PubChem BioAssay (NCI)
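A five-concentration, 48-hour dose response in 96-well plates underlies each endpoint, interpolated linearly between surrounding concentrations. The concentration for full growth arrest is given as TGI.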

Columns and labels:
Assay in all cases: NCI-60 cell line screen, 48 h
T-47D breast = tested on: T-47D breast
SK-MEL-5 melanoma = tested on: SK-MEL-5 melanoma
KM12 colon = tested on: KM12 colon
UO-31 renal = tested on: UO-31 renal
A549 NSCLC = tested on: A549 NSCLC
SNB-19 CNS = tested on: SNB-19 CNS
BT-549 breast = tested on: BT-549 breast
SK-OV-3 ovarian = tested on: SK-OV-3 ovarian
CAKI-1 renal = tested on: CAKI-1 renal
786-0 renal = tested on: 786-0 renal
U251 CNS = tested on: U251 CNS
SF-539 CNS = tested on: SF-539 CNS
MDA-N = tested on: MDA-N
NCI-H23 lung = tested on: NCI-H23 lung
MALME-3M melanoma = tested on: MALME-3M melanoma
SK-MEL-28 melanoma = tested on: SK-MEL-28 melanoma
HOP-62 NSCLC = tested on: HOP-62 NSCLC
MDA-MB-231 breast = tested on: MDA-MB-231 breast
HCT-15 colon = tested on: HCT-15 colon
SNB-75 CNS = tested on: SNB-75 CNS
OVCAR-8 ovarian = tested on: OVCAR-8 ovarian
RXF 393 renal = tested on: RXF 393 renal
SK-MEL-2 melanoma = tested on: SK-MEL-2 melanoma
OVCAR-4 ovarian = tested on: OVCAR-4 ovarian
HCT-116 colon = tested on: HCT-116 colon
DU-145 prostate = tested on: DU-145 prostate
MCF7 breast = tested on: MCF7 breast
SW-620 colon = tested on: SW-620 colon
NCI-H226 lung = tested on: NCI-H226 lung
NCI/ADR-RES ovarian = tested on: NCI/ADR-RES ovarian
HL-60(TB) leukemia = tested on: HL-60(TB) leukemia
RPMI-8226 leukemia = tested on: RPMI-8226 leukemia
OVCAR-3 ovarian = tested on: OVCAR-3 ovarian
PC-3 prostate = tested on: PC-3 prostate
UACC-62 melanoma = tested on: UACC-62 melanoma
HOP-92 NSCLC = tested on: HOP-92 NSCLC
UACC-257 melanoma = tested on: UACC-257 melanoma
HT29 colon = tested on: HT29 colon
OVCAR-5 ovarian = tested on: OVCAR-5 ovarian
TK-10 renal = tested on: TK-10 renal
NCI-H522 lung = tested on: NCI-H522 lung
SF-295 CNS = tested on: SF-295 CNS
ACHN renal = tested on: ACHN renal
IGROV1 ovarian = tested on: IGROV1 ovarian
SR leukemia = tested on: SR leukemia
K-562 leukemia = tested on: K-562 leukemia
COLO 205 colon = tested on: COLO 205 colon
M14 melanoma = tested on: M14 melanoma
SF-268 CNS = tested on: SF-268 CNS
LOX IMVI melanoma = tested on: LOX IMVI melanoma
MDA-MB-435 = tested on: MDA-MB-435
HS 578T breast = tested on: HS 578T breast
SN12C renal = tested on: SN12C renal
NCI-H460 lung = tested on: NCI-H460 lung
A498 renal = tested on: A498 renal
EKVX NSCLC = tested on: EKVX NSCLC
CCRF-CEM leukemia = tested on: CCRF-CEM leukemia
MOLT-4 leukemia = tested on: MOLT-4 leukemia
HCC-2998 colon = tested on: HCC-2998 colon

With NC(N)=NCC(N)C(=O)O (stereo unspecified) the TGI (T-47D breast) was greater than 100 µM, the TGI (SK-MEL-5 melanoma) was greater than 100 µM and the TGI (KM12 colon) was greater than 100 µM. For the same compound, the TGI (UO-31 renal) was greater than 100 µM, the TGI (A549 NSCLC) was greater than 100 µM and the TGI (SNB-19 CNS) was greater than 100 µM. For the same compound, the TGI (BT-549 breast) was greater than 100 µM, the TGI (SK-OV-3 ovarian) was greater than 100 µM and the TGI (CAKI-1 renal) was greater than 100 µM. The TGI (786-0 renal) was greater than 100 µM, the TGI (U251 CNS) was greater than 100 µM and the TGI (SF-539 CNS) was greater than 100 µM. For the same compound, the TGI (MDA-N) was greater than 100 µM, the TGI (NCI-H23 lung) was greater than 100 µM and the TGI (MALME-3M melanoma) was greater than 100 µM. The TGI (SK-MEL-28 melanoma) was greater than 100 µM, the TGI (HOP-62 NSCLC) was greater than 100 µM and the TGI (MDA-MB-231 breast) was greater than 100 µM. For the same compound, the TGI (HCT-15 colon) was greater than 100 µM, the TGI (SNB-75 CNS) was greater than 100 µM and the TGI (OVCAR-8 ovarian) was greater than 100 µM. It also gave a TGI (RXF 393 renal) greater than 100 µM, a TGI (SK-MEL-2 melanoma) greater than 100 µM and a TGI (OVCAR-4 ovarian) greater than 100 µM. For the same compound, the TGI (HCT-116 colon) was greater than 100 µM, the TGI (DU-145 prostate) was greater than 100 µM and the TGI (MCF7 breast) was greater than 100 µM. The TGI (SW-620 colon) was greater than 100 µM, the TGI (NCI-H226 lung) was greater than 100 µM and the TGI (NCI/ADR-RES ovarian) was greater than 100 µM. It also gave a TGI (HL-60(TB) leukemia) greater than 100 µM, a TGI (RPMI-8226 leukemia) greater than 100 µM and a TGI (OVCAR-3 ovarian) greater than 100 µM. For the same compound, the TGI (PC-3 prostate) was greater than 100 µM, the TGI (UACC-62 melanoma) was greater than 100 µM and the TGI (HOP-92 NSCLC) was greater than 100 µM. The TGI (UACC-257 melanoma) was greater than 100 µM, the TGI (HT29 colon) was greater than 100 µM and the TGI (OVCAR-5 ovarian) was greater than 100 µM. It also gave a TGI (TK-10 renal) greater than 100 µM, a TGI (NCI-H522 lung) greater than 100 µM and a TGI (SF-295 CNS) greater than 100 µM. It also gave a TGI (ACHN renal) greater than 100 µM, a TGI (IGROV1 ovarian) greater than 100 µM and a TGI (SR leukemia) greater than 100 µM. The TGI (K-562 leukemia) was greater than 100 µM, the TGI (COLO 205 colon) was greater than 100 µM and the TGI (M14 melanoma) was greater than 100 µM. It also gave a TGI (SF-268 CNS) greater than 100 µM, a TGI (LOX IMVI melanoma) greater than 100 µM and a TGI (MDA-MB-435) greater than 100 µM. The TGI (HS 578T breast) was greater than 100 µM, the TGI (SN12C renal) was greater than 100 µM and the TGI (NCI-H460 lung) was greater than 100 µM. The TGI (A498 renal) was greater than 100 µM and the TGI (EKVX NSCLC) was greater than 100 µM.
With COC(=O)C(Cc1nc2ccccc2[nH]c1=O)C(=O)C(=O)Nc1cc(C(F)(F)F)ccc1Cl (stereo unspecified) the TGI (T-47D breast) was 44.7 µM, the TGI (SK-MEL-5 melanoma) was 56 µM and the TGI (KM12 colon) was 28.3 µM. It also gave a TGI (UO-31 renal) of 28.9 µM, a TGI (A549 NSCLC) greater than 100 µM and a TGI (BT-549 breast) of 44.5 µM. For the same compound, the TGI (SK-OV-3 ovarian) was greater than 100 µM, the TGI (CAKI-1 renal) was 33.4 µM and the TGI (786-0 renal) was 25.2 µM. It also gave a TGI (U251 CNS) of 66.6 µM, a TGI (MDA-N) greater than 100 µM and a TGI (CCRF-CEM leukemia) of 48.2 µM. It also gave a TGI (NCI-H23 lung) of 30.4 µM, a TGI (MALME-3M melanoma) of 31.4 µM and a TGI (SK-MEL-28 melanoma) greater than 100 µM. The TGI (HOP-62 NSCLC) was 35.1 µM, the TGI (MDA-MB-231 breast) was 52.5 µM and the TGI (HCT-15 colon) was 26.7 µM. For the same compound, the TGI (SNB-75 CNS) was 46.1 µM, the TGI (OVCAR-8 ovarian) was 30 µM and the TGI (RXF 393 renal) was 46.3 µM. It also gave a TGI (SK-MEL-2 melanoma) of 34.9 µM, a TGI (OVCAR-4 ovarian) of 27.9 µM and a TGI (HCT-116 colon) of 32.1 µM. It also gave a TGI (MCF7 breast) of 27.4 µM, a TGI (SW-620 colon) greater than 100 µM and a TGI (NCI-H226 lung) of 35.1 µM. It also gave a TGI (NCI/ADR-RES ovarian) of 53.3 µM, a TGI (HL-60(TB) leukemia) of 54.2 µM and a TGI (RPMI-8226 leukemia) of 51.5 µM. It also gave a TGI (OVCAR-3 ovarian) of 25.4 µM, a TGI (PC-3 prostate) of 34.4 µM and a TGI (UACC-62 melanoma) of 53.4 µM. For the same compound, the TGI (HOP-92 NSCLC) was 32.5 µM, the TGI (UACC-257 melanoma) was greater than 100 µM and the TGI (HT29 colon) was 28.6 µM. For the same compound, the TGI (OVCAR-5 ovarian) was 33.5 µM, the TGI (TK-10 renal) was 44 µM and the TGI (NCI-H522 lung) was 19 µM. The TGI (SF-295 CNS) was 71.2 µM, the TGI (ACHN renal) was 24.5 µM and the TGI (IGROV1 ovarian) was 25.3 µM. It also gave a TGI (SR leukemia) greater than 100 µM, a TGI (MOLT-4 leukemia) of 48.2 µM and a TGI (K-562 leukemia) greater than 100 µM. It also gave a TGI (M14 melanoma) of 30.9 µM, a TGI (SF-268 CNS) of 36.4 µM and a TGI (LOX IMVI melanoma) of 31.5 µM. The TGI (MDA-MB-435) was greater than 100 µM, the TGI (HS 578T breast) was 43.2 µM and the TGI (SN12C renal) was 54.8 µM. The TGI (NCI-H460 lung) was 39.9 µM, the TGI (HCC-2998 colon) was 26.4 µM and the TGI (A498 renal) was greater than 100 µM. For the same compound, the TGI (EKVX NSCLC) was 39 µM.
